Assay results reported in ChEMBL document CHEMBL1201862, “PubChem BioAssay data set” (2004).
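In this assay, cells in 96-well plates receive the compound at five concentrations for 48 hours. Endpoints are linearly interpolated between the surrounding concentrations. Here, GI50 denotes the concentration required for 50% inhibition of growth.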 The source made the active and inactive calls. No stated cut-off is given here; in the data, active = GI50 up to about 1.1 µM and inactive = higher.

How the values were obtained:
Test in all cases: NCI-60 cell line screen, 48 h
HCT-15 = system: HCT-15
ACHN = system: ACHN
SN12C = system: SN12C
SK-OV-3 = system: SK-OV-3
A498 = system: A498
CAKI-1 = system: CAKI-1
IGROV-1 = system: IGROV-1
Hs-578T = system: Hs-578T
SK-MEL-2 = system: SK-MEL-2
UACC-257 = system: UACC-257
OVCAR-8 = system: OVCAR-8
HCC 2998 = system: HCC 2998
EKVX = system: EKVX
MOLT-4 = system: MOLT-4
PC-3 = system: PC-3
T47D = system: T47D
HOP-62 = system: HOP-62
SF-539 = system: SF-539
HT-29 = system: HT-29
M19-MEL = system: M19-MEL

Row | Compound | GI50 (HCT-15) | GI50 (ACHN) | GI50 (SN12C) | GI50 (SK-OV-3) | GI50 (A498) | GI50 (CAKI-1) | GI50 (IGROV-1) | GI50 (Hs-578T) | GI50 (SK-MEL-2) | GI50 (UACC-257) | GI50 (OVCAR-8) | GI50 (HCC 2998) | GI50 (EKVX) | GI50 (MOLT-4) | GI50 (PC-3) | GI50 (T47D) | GI50 (HOP-62) | GI50 (SF-539) | GI50 (HT-29) | GI50 (M19-MEL)
1 | O=[N+]([O-])C(=C1Nc2ccccc2N1)C(Cl)=C(Cl)Cl | 38.2 µM | > 100 µM (inactive) | > 100 µM (inactive) | > 100 µM (inactive) | > 100 µM (inactive) | > 100 µM (inactive) | > 100 µM (inactive) | 49.8 µM (inactive) | > 100 µM (inactive) | > 100 µM (inactive) | 74.5 µM (inactive) | > 100 µM (inactive) | > 100 µM (inactive) | 19.8 µM (inactive) | > 100 µM (inactive) | 31.1 µM (inactive) | > 100 µM (inactive) | > 100 µM (inactive) | > 100 µM (inactive) | 
2 | CCSc1nc(=S)n(-c2ccccc2)c(C)c1C(C)=O | > 100 µM | > 100 µM (inactive) | > 100 µM (inactive) | > 100 µM (inactive) | > 100 µM (inactive) | > 100 µM (inactive) | > 100 µM (inactive) | > 100 µM (inactive) | > 100 µM (inactive) | > 100 µM (inactive) | > 100 µM (inactive) | > 100 µM (inactive) | > 100 µM (inactive) | > 100 µM (inactive) | > 100 µM (inactive) | > 100 µM (inactive) | > 100 µM (inactive) | > 100 µM (inactive) | > 100 µM (inactive) | 
3 | O=C(OCc1ccccc1)c1ccc(NCc2cc(O)ccc2O)cc1 | 1.03 µM | 1.43 µM (inactive) | 1.38 µM (inactive) | 2.7 µM (inactive) | 1.09 µM (active) | 0.575 µM (active) | 1.23 µM (inactive) | 1.51 µM (inactive) | 2.05 µM (inactive) | 1.6 µM (inactive) | 1.42 µM (inactive) | 2.15 µM (inactive) | 1.75 µM (inactive) | 0.535 µM (active) | 1.36 µM (inactive) | 1.51 µM (inactive) | 7.43 µM (inactive) | 0.902 µM (active) | 6.24 µM (inactive) | 
4 | Nc1nc(-c2cc(-c3cccc4ccccc34)nc(N)n2)cc(-c2cccc3ccccc23)n1 | > 100 µM | > 100 µM (inactive) | > 100 µM (inactive) | > 100 µM (inactive) | > 100 µM (inactive) | > 100 µM (inactive) | > 100 µM (inactive) | > 100 µM (inactive) | > 100 µM (inactive) | > 100 µM (inactive) | > 100 µM (inactive) | > 100 µM (inactive) | > 100 µM (inactive) | > 100 µM (inactive) | > 100 µM (inactive) | > 100 µM (inactive) | > 100 µM (inactive) | > 100 µM (inactive) | > 100 µM (inactive) | 
5 | CC1OC(OC2C(Oc3cc(O)c4c(c3)O[C@H](c3ccc(O)cc3)CC4=O)OC(CO)C(O)C2O)C(O)C(O)C1O (stereo partly specified) | > 100 µM | > 100 µM (inactive) | > 100 µM (inactive) | > 100 µM (inactive) | > 100 µM (inactive) | > 100 µM (inactive) | > 100 µM (inactive) | > 100 µM (inactive) | > 100 µM (inactive) | > 100 µM (inactive) | > 100 µM (inactive) | > 100 µM (inactive) | > 100 µM (inactive) | > 100 µM (inactive) | > 100 µM (inactive) | > 100 µM (inactive) | > 100 µM (inactive) | > 100 µM (inactive) | > 100 µM (inactive) | 
6 | O=S(=O)(N1CCCCN(S(=O)(=O)C(F)(F)F)CCCN(S(=O)(=O)C(F)(F)F)CCCCN(S(=O)(=O)C(F)(F)F)CCCN(S(=O)(=O)C(F)(F)F)CCCCN(S(=O)(=O)C(F)(F)F)CCCN(S(=O)(=O)C(F)(F)F)CCCCN(S(=O)(=O)C(F)(F)F)CCC1)C(F)(F)F | > 31.6 µM | > 31.6 µM (inactive) | > 31.6 µM (inactive) | > 31.6 µM (inactive) | > 31.6 µM (inactive) | > 31.6 µM (inactive) | > 31.6 µM (inactive) | > 31.6 µM (inactive) | > 100 µM (inactive) | > 31.6 µM (inactive) | > 31.6 µM (inactive) | > 31.6 µM (inactive) | > 31.6 µM (inactive) | > 31.6 µM (inactive) | > 31.6 µM (inactive) | > 31.6 µM (inactive) | > 31.6 µM (inactive) | > 31.6 µM (inactive) | > 31.6 µM (inactive) | 
7 | CC1(Br)Cc2ccccc2C1=O (stereo unspecified) | 7.78 µM | 4.17 µM (inactive) | 7.59 µM (inactive) | 9.06 µM (inactive) | 21.9 µM (inactive) | 8.71 µM (inactive) | 4.12 µM (inactive) | 6.79 µM (inactive) | 10.1 µM (inactive) | 9.53 µM (inactive) | 8.57 µM (inactive) | > 100 µM (inactive) | 3.27 µM (inactive) | 2.13 µM (inactive) | 10.3 µM (inactive) | 9.31 µM (inactive) | 15.3 µM (inactive) | 4.98 µM (inactive) | 4.36 µM (inactive) | 
8 | CCOC(=O)c1cn(CC)c2ccc3c(c2c1=O)S(=O)(=O)C=C3 | > 100 µM | > 100 µM (inactive) | > 100 µM (inactive) | > 100 µM (inactive) | > 100 µM (inactive) | > 100 µM (inactive) | > 100 µM (inactive) | 52.6 µM (inactive) | 52.5 µM (inactive) | > 100 µM (inactive) | > 100 µM (inactive) | > 100 µM (inactive) | > 100 µM (inactive) | > 100 µM (inactive) | > 100 µM (inactive) | > 100 µM (inactive) | > 100 µM (inactive) | > 100 µM (inactive) | > 100 µM (inactive) | 
9 | CC(=O)NNc1nc(C)c(C(=O)NNC(=O)C(=O)Nc2ccc(Cl)cc2Cl)s1 | 38.5 µM | 29.2 µM (inactive) | 45.6 µM (inactive) | 31.9 µM (inactive) |  | 28.3 µM (inactive) | 63.5 µM (inactive) |  | 44.1 µM (inactive) | 31 µM (inactive) | 40.2 µM (inactive) | 40.6 µM (inactive) | 40.1 µM (inactive) | 20.1 µM (inactive) |  |  | 38.5 µM (inactive) | 30.1 µM (inactive) | 48.5 µM (inactive) | 38.4 µM (inactive)
10 | CCCC[Si](CCCC)(CCCC)O[C@@H](/C=C/C(=O)OCC)[C@H](Cc1ccccc1)O[Si](CCCC)(CCCC)CCCC | > 100 µM | > 100 µM (inactive) | > 100 µM (inactive) | > 100 µM (inactive) | > 100 µM (inactive) | > 100 µM (inactive) | > 100 µM (inactive) | > 100 µM (inactive) | > 100 µM (inactive) | > 100 µM (inactive) | > 100 µM (inactive) | > 100 µM (inactive) | > 100 µM (inactive) | > 100 µM (inactive) | > 100 µM (inactive) | > 100 µM (inactive) | > 100 µM (inactive) | > 100 µM (inactive) | > 100 µM (inactive) | 
11 | CC(C)(Oc1ccc(Cl)cc1)C(=O)N(C(=O)N1CCC(c2ccccc2)CC1)c1ccccc1 | 9.89 µM | 40.6 µM (inactive) | 27.4 µM (inactive) | 99.8 µM (inactive) | > 82.8 µM (inactive) | 46 µM (inactive) | > 53.2 µM (inactive) | > 73.8 µM (inactive) | > 59.7 µM (inactive) | 11 µM (inactive) | 8.47 µM (inactive) | 41.4 µM (inactive) | 11.1 µM (inactive) | 7.05 µM (inactive) | 5.51 µM (inactive) | 7 µM (inactive) | > 100 µM (inactive) | > 100 µM (inactive) | 22.5 µM (inactive) | 
12 | O=[N+]([O-])c1ccc(/C=C\c2ccc3c(c2)OCO3)c([N+](=O)[O-])c1 | 14.6 µM | 16.6 µM (inactive) | 17.5 µM (inactive) | 18.7 µM (inactive) | 19 µM (inactive) | 25 µM (inactive) | 12.2 µM (inactive) | 16.8 µM (inactive) | 18.3 µM (inactive) | 17.3 µM (inactive) | 19 µM (inactive) | 14.5 µM (inactive) | 13 µM (inactive) | 17.5 µM (inactive) | 24.8 µM (inactive) | 44.1 µM (inactive) | 25.1 µM (inactive) | 20 µM (inactive) | 19.9 µM (inactive) | 
13 | CCOC(=O)c1[nH]c(Br)c(-c2ccc(Br)cc2)c1Br | 0.516 µM | 1.13 µM (inactive) | 0.45 µM (active) | 1.69 µM (inactive) | 1.61 µM (inactive) | 0.8 µM (active) | 0.601 µM (active) | 0.395 µM (active) | 0.307 µM (active) | 0.671 µM (active) | 0.527 µM (active) | 5.79 µM (inactive) | 7.18 µM (inactive) | 0.367 µM (active) | 0.705 µM (active) | 2.39 µM (inactive) | 0.671 µM (active) | 0.441 µM (active) | 0.327 µM (active) | 
14 | C[C@H](OC(=O)/C=C/c1ccc(O)c(O)c1)[C@H](C)OC(=O)/C=C/c1ccc(O)c(O)c1 | 4.71 µM | 6.11 µM (inactive) | 11.5 µM (inactive) | 16.3 µM (inactive) | 17.1 µM (inactive) | 7.89 µM (inactive) | 5.2 µM (inactive) | 6.65 µM (inactive) | 10.4 µM (inactive) | 10.1 µM (inactive) | 6.15 µM (inactive) | 11.5 µM (inactive) | 14.7 µM (inactive) | 2.49 µM (inactive) | 13.1 µM (inactive) | 4.41 µM (inactive) | 11.1 µM (inactive) | 9.48 µM (inactive) | 12.2 µM (inactive) | 
15 | COc1cc(CO)cc2c1[nH]c1ccccc12 [KOENOLINE] | > 25 µM | > 25 µM (inactive) | > 25 µM (inactive) | > 25 µM (inactive) |  |  | > 25 µM (inactive) |  | > 25 µM (inactive) |  | > 25 µM (inactive) | > 25 µM (inactive) |  | > 25 µM (inactive) |  |  | > 25 µM (inactive) | > 25 µM (inactive) | > 25 µM (inactive) | > 25 µM (inactive)
